Laboratory results published in patent US9969696B2, “Compounds as inhibitor of DNA double-strand break repair, methods and applications thereof” (INDIAN INSTITUTE OF SCIENCE, priority 2012, dated 2018).

Key:
[1] = Solubility (characterisation data)
DNA end joining (NHEJ) = assay: NHEJ assay, cell-free extracts prepared from rat testes; assay type: biochemical; conditions: cell-free repair system from rat testes; compatible, noncompatible, blunt ends
Experimental: ATP end-labeled oligomeric DNA substrate (75 bp) containing 4 nt overhangs at 5′ ends (about 2 h at 25° C.). In the case of vehicle control, DMSO is used. […] The reaction products are purified and resolved on about 8% denaturing polyacrylamide gel.
FIG. 2 depicts the NHEJ assay and study of joining efficiency. A. Schematic representation of NHEJ assay and substrates containing DSBs. B. Comparison of the effect of potential Ligase IV inhibitors on DNA end joining. The joined products are indicated. “M” represents [g-32 ? P] ATP end-labeled 50 by ladder. C. Quantification of the joining efficiency. […] “PSLU” is “photostimulated luminescence unit”. […] Products are resolved on 1% agarose gel and visualized. Ethidium bromide is used as a positive control for the intercalation assay.
The reaction products are resolved on 8% denaturing PAGE. “M” represents [γ-^32P]ATP end-labeled 50 by ladder. […] “M” is a 2 log DNA ladder.
A. Western blotting showing presence of Ligase IV/XRCC4 in eluted fractions. W is wash, 1 and 2 are different fractions. […] Concentrations of inhibitors used are indicated. For other details, FIG. 4 legend can be referred. C. […] Radiolabeled oligomeric DNA substrates containing 5′ compatible termini are then added to the reaction along with increasing concentrations of purified Ligase IV/XRCC4 complex (30, 60 and 120 fmol) and products are resolved on a PAGE. F. Bar diagram representing quantification of the complementation experiment performed on 5′-5′ and 5′-3′ noncomplementary ends. In all panels quantification of EJ based on 3 independent experiments is represented as mean±SEM.

SMILES | melting point [°C] | Solubility in dimethyl formamide (DMF), dimethyl sulfoxide (DMSO) [1] | Solubility in chloroform (CHCl3) [1] | Solubility in ethanol [1] | Inhibition of end joining (EJ) of various types of DSBs (DNA end joining (NHEJ))
Cc1ccc(/C=N/c2nc(S)nc(O)c2/N=C/c2ccc(C)cc2)cc1 [Compound 7, (5E,6E)-5,6-bis(4-methylbenzylideneamino)-2-mercaptopyrimidin-4-ol] | 181 to 183 | soluble | Insoluble | Partially soluble | –
Oc1nc(S)nc2nc3[nH]c4ccccc4c3nc12 [Compound 8, 2-mercapto-10H-indolo[3,2-g]pteridin-4-ol] | > 320 | soluble | Insoluble | Partially soluble | –
Cc1ccc(/C=N/c2c(N)nc(S)nc2O)cc1 [Compound 13, (E)-5-(4-methylbenzylideneamino)-6-amino-2-mercaptopyrimidin-4-ol] | – | soluble | Insoluble | Partially soluble | –
Oc1nc(S)nc(/N=C/c2ccc(Cl)cc2)c1/N=C/c1ccc(Cl)cc1 [Compound 6, (5E,6E)-5,6-bis(4-chlorobenzylideneamino)-2-mercaptopyrimidin-4-ol] | 260 to 262 | soluble | Insoluble | Partially soluble | –
Nc1nc(S)nc(O)c1/N=C/c1ccc(O)cc1 [Compound 4, (E)-5-(4-hydroxybenzylideneamino)-6-amino-2-mercaptopyrimidin-4-ol] | > 320 | soluble | Insoluble | Partially soluble | –
COc1cc(/C=N/c2c(N)nc(S)nc2O)cc(OC)c1OC [Compound 5, (E)-5-(3,4,5-trimethoxybenzylideneamino)-6-amino-2-mercaptopyrimidin-4-ol] | 315 | soluble | Insoluble | Partially soluble | –
Nc1nc(S)nc(O)c1/N=C/c1ccc([N+](=O)[O-])cc1 [Compound 3, (E)-5-(4-nitrobenzylideneamino)-6-amino-2-mercaptopyrimidin-4-ol] | > 320 | soluble | Insoluble | Partially soluble | –
COc1ccc(/C=N/c2nc(S)nc(O)c2/N=C/c2ccc(OC)cc2)cc1 [Compound 10, (5E,6E)-5,6-bis(4-methoxybenzylideneamino)-2-mercaptopyrimidin-4-ol] | – | soluble | Insoluble | Partially soluble | –
[Na+].[O-]c1nc(S)nc(/N=C/c2ccccc2)c1/N=C/c1ccccc1 [Compound 15, Sodium 5,6-bis((E)-benzylideneamino)-2-mercaptopyrimidin-4-olate] | – | – | – | – | inhibits end joining (EJ) irrespective of type and configurations of DSB
COc1cc(/C=N/c2nc(S)nc(O)c2/N=C/c2cc(OC)c(OC)c(OC)c2)cc(OC)c1OC [Compound 11, (5E,6E)-5,6-bis(3,4,5-trimethoxybenzylideneamino)-2-mercaptopyrimidin-4-ol] | – | soluble | Insoluble | Partially soluble | –
Nc1nc(S)nc(O)c1/N=C/c1ccc(Cl)cc1 [Compound 2, (E)-5-(4-chlorobenzylideneamino)-6-amino-2-mercaptopyrimidin-4-ol] | > 300 | soluble | Insoluble | Partially soluble | –
COc1ccc(/C=N/c2c(N)nc(S)nc2O)cc1 [Compound 14, (E)-5-(4-methoxybenzylideneamino)-6-amino-2-mercaptopyrimidin-4-ol] | – | soluble | Insoluble | Partially soluble | –
Oc1ccc(/C=N/c2nc(S)nc(O)c2/N=C/c2ccc(O)cc2)cc1 [Compound 12, (5E,6E)-5,6-bis(4-hydroxybenzylideneamino)-2-mercaptopyrimidin-4-ol] | – | soluble | Insoluble | Partially soluble | –
O=[N+]([O-])c1ccc(/C=N/c2nc(S)nc(O)c2/N=C/c2ccc([N+](=O)[O-])cc2)cc1 [Compound 9, (5E,6E)-5,6-bis(4-nitrobenzylideneamino)-2-mercaptopyrimidin-4-ol] | – | soluble | Insoluble | Partially soluble | –
